pIC50: −log10 of the molar value. Read-outs that look alike come from different tables or passages of the source. A value given as a limit tells only on which side of the number the result lay.

Type in all cases: biochemical
One test deals with CDK2/CCNE1 (Homo sapiens, UniProt P24941). The test can be described thus: CDK2 homogeneous time-resolved fluorescence (HTRF) kinase assay. Conditions: CDK2/CCNE. In a few lines: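 3 nM CDK2/CCNE1 was preincubated with compound for 20 min at 23 °C in HEPES buffer (pH not stated), then reacted 60 min with 1 mM ATP and 50 nM ULight-4E-BP1 (Thr37/46) peptide. After EDTA stop, Eu-anti-phospho-4E-BP1 antibody (2 nM) was added for 60 min and TR-FRET read at 665 nm.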

The target of a further test is CDK1/CCNB1 (Homo sapiens, UniProt P06493). As to the kind of experiment: CDK1 homogeneous time-resolved fluorescence (HTRF) kinase assay. Conditions: CDK1/CCNB. An outline of the steps: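 0.5 nM CDK1/CCNB1 was preincubated 20 min at 23 °C with compound in HEPES pH-unspecified buffer (MgCl2, EGTA, DTT, Tween 20), then reacted 60 min with 1 mM ATP and 50 nM ULight-4E-BP1 (Thr37/46) peptide. EDTA-stopped reactions were detected with 2 nM Eu-anti-phospho antibody; IC50 from 11-point half-log titrations.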
CDK1/CCNB1, sequence (P06493 whole entry): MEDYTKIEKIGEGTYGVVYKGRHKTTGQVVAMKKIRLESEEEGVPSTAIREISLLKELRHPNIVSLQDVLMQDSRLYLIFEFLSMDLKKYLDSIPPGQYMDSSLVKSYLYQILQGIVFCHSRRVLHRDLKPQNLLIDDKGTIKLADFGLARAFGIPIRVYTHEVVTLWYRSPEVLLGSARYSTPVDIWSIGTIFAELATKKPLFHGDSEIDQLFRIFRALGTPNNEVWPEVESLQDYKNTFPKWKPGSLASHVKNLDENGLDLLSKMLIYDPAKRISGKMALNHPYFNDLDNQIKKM
CDK1/CCNB1, sequence (P14635 whole entry partner): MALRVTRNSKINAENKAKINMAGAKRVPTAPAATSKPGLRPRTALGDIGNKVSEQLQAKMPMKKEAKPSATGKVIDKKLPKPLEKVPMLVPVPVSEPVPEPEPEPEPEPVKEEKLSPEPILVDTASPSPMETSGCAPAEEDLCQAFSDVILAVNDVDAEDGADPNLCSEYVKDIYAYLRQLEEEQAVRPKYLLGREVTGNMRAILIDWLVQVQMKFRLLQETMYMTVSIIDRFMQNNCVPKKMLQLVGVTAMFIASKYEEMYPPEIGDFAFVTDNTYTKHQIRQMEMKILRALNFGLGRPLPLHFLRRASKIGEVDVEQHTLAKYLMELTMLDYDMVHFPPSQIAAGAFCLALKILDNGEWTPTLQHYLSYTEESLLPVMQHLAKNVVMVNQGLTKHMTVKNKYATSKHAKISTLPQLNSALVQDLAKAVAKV

Another test concerns the target CDK4/CCND3 (Homo sapiens, UniProt P11802). As to the kind of experiment: CDK4 homogeneous time-resolved fluorescence (HTRF) kinase assay. Conditions: CDK4/CCND. In a few lines: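 Inhibition of CDK4/CCND3 (1.5 nM) was measured at high ATP (1 mM) using 50 nM ULight-labelled 4E-BP1 Thr37/46 peptide; detection used 2 nM europium anti-phospho antibody after EDTA quench. IC50 values came from 11-point half-log titrations typically starting at 10 μM.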

For a further test, the target named is CDK6/CCND1 (Homo sapiens, UniProt Q00534). The test can be described thus: CDK6 homogeneous time-resolved fluorescence (HTRF) kinase assay. Conditions: CDK6/CCND. An outline of the steps: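 1 nM enzyme, 1 mM ATP, 50 nM ULight-4E-BP1 (Thr37/46) peptide, 1% DMSO; 20 min compound preincubation, 60 min reaction, 23 °C. EDTA stop, 2 nM Eu-anti-phospho-4E-BP1 antibody 60 min. TR-FRET 665 nm (or 665/615 ratio); IC50 from 11-point half-log titration, top 10 μM.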
CDK6/CCND1, sequence (Q00534 whole entry): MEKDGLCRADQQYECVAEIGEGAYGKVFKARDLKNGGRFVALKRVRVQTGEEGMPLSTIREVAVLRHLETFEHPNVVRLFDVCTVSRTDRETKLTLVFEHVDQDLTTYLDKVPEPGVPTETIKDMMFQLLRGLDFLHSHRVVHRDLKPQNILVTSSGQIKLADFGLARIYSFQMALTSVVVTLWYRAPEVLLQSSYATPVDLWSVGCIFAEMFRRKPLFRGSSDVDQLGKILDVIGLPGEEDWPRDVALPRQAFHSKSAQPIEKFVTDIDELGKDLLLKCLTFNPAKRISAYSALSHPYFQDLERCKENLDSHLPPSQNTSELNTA
CDK6/CCND1, sequence (P24385 whole entry partner): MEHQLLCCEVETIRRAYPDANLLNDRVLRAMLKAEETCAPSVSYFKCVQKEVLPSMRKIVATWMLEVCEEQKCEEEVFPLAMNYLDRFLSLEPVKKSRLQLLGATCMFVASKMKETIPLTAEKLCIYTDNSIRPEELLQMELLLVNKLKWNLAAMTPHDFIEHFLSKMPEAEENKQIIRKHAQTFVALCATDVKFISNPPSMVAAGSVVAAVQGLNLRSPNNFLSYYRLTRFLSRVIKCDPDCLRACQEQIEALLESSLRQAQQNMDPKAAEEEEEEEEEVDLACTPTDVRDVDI

Where [1] appears, read: <25 nM, read-out: CDK2/CCNE IC50 <25 nM.
Setting [2] is: >250 nM marked x, read-out: CDK1/CCNB IC50 >250 nM.
[3] abbreviates: 25-250 nM marked x, read-out: CDK4/CCND IC50 25-250 nM.
Where [4] appears, read: >250 nM marked x, read-out: CDK6/CCND IC50 >250 nM.
[5] abbreviates: 25-250 nM marked x, read-out: CDK1/CCNB IC50 25-250 nM.
[6] abbreviates: 25-250 nM marked x, read-out: CDK6/CCND IC50 25-250 nM.
Setting [7] is: x = IC50 <25 nM, read-out: CDK2/CCNE IC50 (<25 nM).
[8] abbreviates: x = IC50 25-250 nM, read-out: CDK1/CCNB IC50 (25-250 nM).
Where [9] appears, read: x = IC50 25-250 nM, read-out: CDK4/CCND IC50 (25-250 nM).
Setting [10] is: x = IC50 25-250 nM, read-out: CDK6/CCND IC50 (25-250 nM).
Where [11] appears, read: x = IC50 >250 nM, read-out: CDK4/CCND IC50 (>250 nM column).
Where [12] appears, read: x = IC50 >250 nM, read-out: CDK6/CCND IC50 (>250 nM column).
The mark [13] stands for this setting: x = IC50 >250 nM, read-out: CDK1/CCNB IC50 (>250 nM column).

CDK4/CCND3, sequence (P11802 whole entry): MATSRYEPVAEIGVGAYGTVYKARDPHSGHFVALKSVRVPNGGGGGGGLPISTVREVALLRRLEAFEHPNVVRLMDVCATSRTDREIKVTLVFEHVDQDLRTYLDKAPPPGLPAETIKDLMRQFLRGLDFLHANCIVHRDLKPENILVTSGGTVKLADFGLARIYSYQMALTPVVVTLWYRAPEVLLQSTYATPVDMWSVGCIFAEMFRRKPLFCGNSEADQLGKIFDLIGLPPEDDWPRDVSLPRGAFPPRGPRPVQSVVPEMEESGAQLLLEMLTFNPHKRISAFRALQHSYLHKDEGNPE
CDK4/CCND3, sequence (P30281 whole entry partner): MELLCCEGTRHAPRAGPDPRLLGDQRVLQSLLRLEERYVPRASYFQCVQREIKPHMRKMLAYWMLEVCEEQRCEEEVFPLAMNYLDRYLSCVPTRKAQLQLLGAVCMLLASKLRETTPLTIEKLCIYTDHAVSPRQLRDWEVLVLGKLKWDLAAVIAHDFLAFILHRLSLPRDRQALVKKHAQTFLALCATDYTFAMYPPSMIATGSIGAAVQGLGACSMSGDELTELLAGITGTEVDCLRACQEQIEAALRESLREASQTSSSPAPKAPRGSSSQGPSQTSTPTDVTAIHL

As for `CC(C)S(=N)(=O)c1ccc(Nc2cc3c(C#Cc4cc5c(cc4N)C(C)(C)C(=O)N5)nccc3cn2)cc1` (single isomer, unassigned) [Example 270, 5-amino-3,3-dimethyl-6-((7-((4-(propan-2-ylsulfonimidoyl)phenyl)amino)-2,6-naphthyridin-1-yl)ethynyl)indolin-2-one], the pIC50 on CDK2/CCNE1 (setting [1]) is more than 7.60; at CDK1/CCNB1 (setting [2]), less than 6.60; at CDK4/CCND3 (setting [3]), 6.60 to 7.60; on CDK6/CCND1 (setting [4]), less than 6.60.

`CC(C)S(=N)(=O)c1ccc(Nc2cc3c(C#Cc4ccc5c(c4)NC(=O)C5(C)CCO)nccc3cn2)cc1` (single isomer, unassigned) [Example 271, 3-(2-hydroxyethyl)-3-methyl-6-((7-((4-(propan-2-ylsulfonimidoyl)phenyl)amino)-2,6-naphthyridin-1-yl)ethynyl)indolin-2-one]: the pIC50 was more than 7.60 on CDK2/CCNE1 (setting [1]), 6.60 to 7.60 on CDK1/CCNB1 (setting [5]), 6.60 to 7.60 at CDK4/CCND3 (setting [3]) and 6.60 to 7.60 at CDK6/CCND1 (setting [6]).

In the case of `N=S(=O)(c1ccc(Nc2cc3c(C#Cc4ccc5c(c4)NC(=O)C54CC4)nccc3cn2)c(F)c1)C1COC1` (single isomer, unassigned) [Example 275, 6′-((7-((2-fluoro-4-(oxetane-3-sulfonimidoyl)phenyl)amino)-2,6-naphthyridin-1-yl)ethynyl)spiro[cyclopropane-1,3′-indolin]-2′-one], the pIC50 was more than 7.60 at CDK2/CCNE1 (setting [1]), less than 6.60 at CDK1/CCNB1 (setting [2]), 6.60 to 7.60 on CDK4/CCND3 (setting [3]) and less than 6.60 at CDK6/CCND1 (setting [4]).

`CC(C)S(=N)(=O)c1ccc(Nc2cc3c(C#Cc4ccc5c(c4)NC(=O)C5(C)O)nccc3cn2)cc1` (single isomer, unassigned) [Example 279, 3-hydroxy-3-methyl-6-((7-((4-(propan-2-ylsulfonimidoyl)phenyl)amino)-2,6-naphthyridin-1-yl)ethynyl)indolin-2-one]: the pIC50 at CDK2/CCNE1 (setting [1]) was more than 7.60; at CDK1/CCNB1 (setting [5]), 6.60 to 7.60; on CDK4/CCND3 (setting [3]), 6.60 to 7.60; on CDK6/CCND1 (setting [6]), 6.60 to 7.60.

Turning to `COc1cc(S(=N)(=O)C2CC2)ccc1Nc1cc2c(C#Cc3ccc4c(c3)NC(=O)C43CCC3)nccc2cn1` (single isomer, unassigned) [Example 296, 6′-((7-((4-(cyclopropanesulfonimidoyl)-2-methoxyphenyl)amino)-2,6-naphthyridin-1-yl)ethynyl)spiro[cyclobutane-1,3′-indolin]-2′-one], the pIC50 is more than 7.60 on CDK2/CCNE1 (setting [1]); less than 6.60 at CDK1/CCNB1 (setting [2]); less than 6.60 on CDK4/CCND3 (>250 nM marked x, read-out: CDK4/CCND IC50 >250 nM); less than 6.60 on CDK6/CCND1 (setting [4]).

On to `Cc1cc2c(cc1C#Cc1nccc3cnc(Nc4ccc(S(=N)(=O)C(C)C)cc4)cc13)NC(=O)C2(C)C` (single isomer, unassigned) [Example 315, 3,3,5-trimethyl-6-((7-((4-(propan-2-ylsulfonimidoyl)phenyl)amino)-2,6-naphthyridin-1-yl)ethynyl)indolin-2-one], for which the pIC50 was more than 7.60 at CDK2/CCNE1 (setting [1]), less than 6.60 on CDK1/CCNB1 (setting [2]), 6.60 to 7.60 at CDK4/CCND3 (setting [3]) and less than 6.60 on CDK6/CCND1 (setting [4]).

Regarding `COCC1(COC)C(=O)Nc2cc(C#Cc3nccc4cnc(Nc5ccc(S(=N)(=O)C(C)C)cc5)cc34)ccc21` (single isomer, unassigned) [Example 321, 3,3-bis(methoxymethyl)-6-((7-((4-(propan-2-ylsulfonimidoyl)phenyl)amino)-2,6-naphthyridin-1-yl)ethynyl)indolin-2-one], the pIC50 is more than 7.60 at CDK2/CCNE1 (setting [1]), 6.60 to 7.60 at CDK1/CCNB1 (setting [5]), 6.60 to 7.60 at CDK4/CCND3 (setting [3]) and less than 6.60 on CDK6/CCND1 (setting [4]).

For `CC(C)S(=N)(=O)c1ccc(Nc2cc3c(C#Cc4ccc5c(c4)NC(=O)C5(C)CO)nccc3cn2)cc1` (single isomer, unassigned) [Example 328, 3-(hydroxymethyl)-3-methyl-6-((7-((4-(propan-2-ylsulfonimidoyl)phenyl)amino)-2,6-naphthyridin-1-yl)ethynyl)indolin-2-one], the pIC50 was more than 7.60 on CDK2/CCNE1 (setting [1]), 6.60 to 7.60 at CDK1/CCNB1 (setting [5]), 6.60 to 7.60 on CDK4/CCND3 (setting [3]) and less than 6.60 on CDK6/CCND1 (setting [4]).

For the compound `CC1(O)C(=O)Nc2cc(C#Cc3nccc4cnc(Nc5ccc(S(C)(=O)=O)cc5)cc34)ccc21` (single isomer, unassigned) [Example 347, 3-hydroxy-3-methyl-6-((7-((4-(methylsulfonyl)phenyl)amino)-2,6-naphthyridin-1-yl)ethynyl)indolin-2-one], the pIC50 at CDK2/CCNE1 (setting [7]) was more than 7.60; at CDK1/CCNB1 (setting [8]), 6.60 to 7.60; at CDK4/CCND3 (setting [9]) it was 6.60 to 7.60; on CDK6/CCND1 (setting [10]), 6.60 to 7.60.

Regarding `CC1(CO)C(=O)Nc2cc(C#Cc3nccc4cnc(Nc5ccc(S(C)(=O)=O)cc5)cc34)ccc21` (single isomer, unassigned) [Example 372, 3-(hydroxymethyl)-3-methyl-6-((7-((4-(methylsulfonyl)phenyl)amino)-2,6-naphthyridin-1-yl)ethynyl)indolin-2-one], the pIC50 on CDK2/CCNE1 (setting [7]) is more than 7.60; at CDK1/CCNB1 (setting [8]), 6.60 to 7.60; on CDK4/CCND3 (setting [9]), 6.60 to 7.60; at CDK6/CCND1 (setting [10]), 6.60 to 7.60.

With `CCC1(C)C(=O)Nc2cc(C#Cc3nccc4cnc(Nc5ccc(S(C)(=O)=O)cc5)cc34)ccc21` (single isomer, unassigned) [Example 388, 3-ethyl-3-methyl-6-((7-((4-(methylsulfonyl)phenyl)amino)-2,6-naphthyridin-1-yl)ethynyl)indolin-2-one], the pIC50 on CDK2/CCNE1 (setting [7]) is more than 7.60; at CDK1/CCNB1 (setting [8]), 6.60 to 7.60; on CDK4/CCND3 (setting [11]), less than 6.60; at CDK6/CCND1 (setting [12]), less than 6.60.

In the case of `CCS(=N)(=O)c1ccc(Nc2cc3c(C#Cc4ccc(=O)[nH]n4)nccc3cn2)cc1` (single isomer, unassigned) [Example 403, 6-((7-((4-(ethylsulfonimidoyl)phenyl)amino)-2,6-naphthyridin-1-yl)ethynyl)pyridazin-3(2H)-one], the pIC50 on CDK2/CCNE1 (setting [7]) was more than 7.60; on CDK1/CCNB1 (setting [13]) it was less than 6.60; at CDK4/CCND3 (setting [11]) it was less than 6.60; on CDK6/CCND1 (setting [12]), less than 6.60.

With `CS(=N)(=O)c1ccc(Nc2cc3c(C#Cc4ccc5oc(=O)[nH]c5c4)nccc3cn2)cc1` (single isomer, unassigned) [Example 483, 5-((7-((4-(S-methylsulfonimidoyl)phenyl)amino)-2,6-naphthyridin-1-yl)ethynyl)benzo[d]oxazol-2(3H)-one], the pIC50 at CDK2/CCNE1 (setting [7]) is more than 7.60; on CDK1/CCNB1 (setting [8]) it was 6.60 to 7.60; on CDK4/CCND3 (setting [9]) it was 6.60 to 7.60; at CDK6/CCND1 (setting [10]), 6.60 to 7.60.

As to `CS(=N)(=O)c1ccc(Nc2cc3c(C#Cc4ccc(C#N)cc4)nccc3cn2)cc1` (single isomer, unassigned) [Example 511, 4-((7-((4-(S-methylsulfonimidoyl)phenyl)amino)-2,6-naphthyridin-1-yl)ethynyl)benzonitrile], the pIC50 on CDK2/CCNE1 (x = IC50 25-250 nM, read-out: CDK2/CCNE IC50 (25-250 nM)) was 6.60 to 7.60; at CDK1/CCNB1 (setting [13]), less than 6.60; on CDK4/CCND3 (setting [11]), less than 6.60; at CDK6/CCND1 (setting [12]) it was less than 6.60.

Take `Cc1c(-c2nccc3cnc(Nc4ccc(S(C)(=N)=O)cc4)cc23)ccc2nn(C)cc12` (single isomer, unassigned) [Example 545, (4-((5-(2,4-dimethyl-2H-indazol-5-yl)-2,6-naphthyridin-3-yl)amino)phenyl)(imino)(methyl)-λ^6-sulfanone]: the pIC50 at CDK2/CCNE1 (setting [7]) was more than 7.60; at CDK1/CCNB1 (setting [13]), less than 6.60; at CDK4/CCND3 (setting [11]), less than 6.60; at CDK6/CCND1 (setting [10]) it was 6.60 to 7.60.

The values are drawn from patent publication US20260325533A1, “CDK INHIBITOR COMPOUNDS” (ALEKSIA THERAPEUTICS, INC., priority 2023, published 2026).
